PubChem BioAssay (NCI)
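Five concentrations, 48 hours, 96-well plates. GI50 = concentration required for 50% inhibition of growth. Definition used: TGI = concentration required for complete inhibition of growth.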

Tests used:
Experiment in all cases: DTP human tumour cell line panel, 48 h
MDA-N = tested on: MDA-N
M19-MEL melanoma = tested on: M19-MEL melanoma
DLD-1 colon = tested on: DLD-1 colon
SNB-78 CNS = tested on: SNB-78 CNS
XF 498 CNS = tested on: XF 498 CNS
DMS 114 small cell lung = tested on: DMS 114 small cell lung
HOP-18 NSCLC = tested on: HOP-18 NSCLC
LXFL 529 NSCLC = tested on: LXFL 529 NSCLC
RXF-631 renal = tested on: RXF-631 renal

Row | Compound | TGI (MDA-N) | TGI (M19-MEL melanoma) | TGI (DLD-1 colon) | TGI (SNB-78 CNS) | TGI (XF 498 CNS) | TGI (DMS 114 small cell lung) | TGI (HOP-18 NSCLC) | TGI (LXFL 529 NSCLC) | TGI (RXF-631 renal) | GI50 (DLD-1 colon) | GI50 (SNB-78 CNS) | GI50 (LXFL 529 NSCLC) | GI50 (MDA-N)
1 | CC(C)c1[nH]nc(C(N)=O)c1N=NN(C)C | > 100 µM |  |  |  |  |  |  |  |  |  |  |  | 
2 | COc1ccc(C/C(=N/O)C(=O)NCCc2cc(Br)c(OCCCN(C)C)c(Br)c2)cc1Br |  | 33.8 µM | 25.3 µM | 68.4 µM | 25.6 µM | 36.5 µM | 0.0986 µM | 29.7 µM |  |  |  |  | 
3 | COc1ccc(/C=C(/C#N)C(N)=O)c(OC)c1 | 52.6 µM |  |  |  |  |  |  |  |  |  |  |  | 
4 | CN1C(=O)CCC1(O)C1C=CC=CC1 (configuration not stated) |  | > 100 µM | > 100 µM | > 100 µM | > 100 µM | > 100 µM |  | > 100 µM | > 100 µM |  |  |  | 
5 | O=C1NC(Cc2ccc(O)cc2)C(=O)N2CCCC12 (configuration not stated) |  | > 100 µM | > 100 µM | > 100 µM |  | > 100 µM | > 100 µM | > 100 µM | > 100 µM |  |  |  | 
6 | CCOC(=O)C1Cc2c(cc3c4c(cccc24)N(C(C)=O)C3)N(C)C1 (configuration not stated) | 3.29 µM |  |  |  |  |  |  |  |  |  |  |  | 
7 | Cn1c2c(c3ccccc31)CCN(CCCCN1CCCCC1)C2=O |  | > 100 µM | > 100 µM | > 100 µM | > 100 µM |  | > 100 µM | > 100 µM | > 100 µM |  |  |  | 
8 | CC1=CC(=O)C2=C(C)CCC3C(C)C(=O)OC3C12 (configuration not stated) | > 100 µM |  |  |  |  |  |  |  |  |  |  |  | 
9 | N#Cc1c(-c2ccc(Cl)c(Cl)c2)c(-c2ccc(Cl)c(Cl)c2)nn(CC(=O)O)c1=O |  | > 100 µM | > 100 µM | > 100 µM | 98.4 µM |  | > 100 µM | > 100 µM | > 100 µM |  |  |  | 
10 | Cn1cc(C(=O)c2ccccc2)c2ccccc2c1=O |  | > 100 µM | > 100 µM |  | > 100 µM | > 100 µM |  | > 100 µM |  |  |  |  | 
11 | COc1ccc(NC(=O)C(=O)c2c(O)c3ccc(O)cc3oc2=O)c([N+](=O)[O-])c1 |  | > 100 µM | > 100 µM |  |  | > 100 µM |  | > 100 µM | > 100 µM |  |  |  | 
12 | CC(=O)O[C@H]1C(=O)[C@@]2(C)C(C(OC(=O)c3ccccc3)[C@]3(O)C[C@H](OC(=O)C(OC(=O)CCCC(=O)NCCCN(C)C)C(NC(=O)c4ccccc4)c4ccccc4)C(C)=C1C3(C)C)C1(OC(C)=O)COC1C[C@@H]2O (some centres not stated) | < 0.01 µM | 17.3 µM | > 40.9 µM | 96.8 µM | < 0.0171 µM | < 0.01 µM | 35 µM | 20.9 µM | > 100 µM |  |  |  | 
13 | Cc1nc(-n2nc(-c3ccccc3)cc2-c2ccccc2)sc1C(=O)/C=C/c1ccc(/C=C/C(=O)c2sc(-n3nc(-c4ccccc4)cc3-c3ccccc3)nc2C)cc1 |  | 63 µM | 44.8 µM | 99.8 µM | 41.4 µM | > 100 µM |  | 67.3 µM | 78.9 µM |  |  |  | 
14 | O=C(NCCCCCCCCCCCCNC(=O)c1cccc2ccccc12)c1cccc2ccccc12 |  | > 100 µM | > 100 µM | > 82.3 µM | > 75.8 µM | > 100 µM | > 100 µM | > 100 µM | > 100 µM |  |  |  | 
15 | COC(=O)C(C(=O)C(=O)Nc1c(C)cccc1C)c1cnc2ccccc2n1 (configuration not stated) |  |  |  | > 100 µM | > 100 µM | > 100 µM | > 100 µM | > 100 µM | > 100 µM |  |  |  | 
16 | c1ccc2sc(SCCSc3nc4ccccc4s3)nc2c1 | > 100 µM |  |  |  |  |  |  |  |  |  |  |  | 
17 | COC(=O)CC(NC(=O)OCc1ccccc1)C(C(C)=O)C(=O)OCc1ccccc1 (configuration not stated) |  | > 31.6 µM | > 31.6 µM | > 31.6 µM |  | > 31.6 µM | > 31.6 µM | > 31.6 µM |  |  |  |  | 
18 | c1cc(NNc2cccc(-c3nn[nH]n3)c2)cc(-c2nn[nH]n2)c1 | > 100 µM |  |  |  |  |  |  |  |  |  |  |  | 
19 | N.N.N.N.N.[Co+3].[I-].[N-]=[N+]=[N-] |  |  | > 100 µM | > 100 µM |  |  |  | > 100 µM |  | > 100 µM | > 100 µM | > 100 µM | 
20 | COc1cc(Nc2nc3cc(N)cc(N)c3nc2-c2ccccc2)cc(OC)c1OC | 31.3 µM |  |  |  |  |  |  |  |  |  |  |  | 10.5 µM
21 | O=C1C2Nc3ccccc3SC2C(=O)N1c1ccc(Br)cc1 (configuration not stated) |  | > 100 µM | > 100 µM | 99.1 µM | > 100 µM | 46.4 µM |  | 82.1 µM |  |  |  |  | 
22 | COc1ccc2c(c1OC)C[C@@H]1c3c(cc4c(c3-2)OCO4)CCN1C | > 100 µM |  |  |  |  |  |  |  |  |  |  |  | 
